Test [1] has as its system primary human fibroblasts derived from IPF patients (LL29 cells). Description: Inhibition of fibrotic process, αSMA staining in TGF-β1 treated LL29 fibroblasts. It is filed as cell-based. The note with it: Fibroblast, 96 h, TGF-β1 20 ng/mL, 4 days; for EC50: % αSMA positive cells; for inhibition at 10 µM: given for EC50 >10 μM, read-out: percent inhibition at 10 μM. The essentials:
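IPF-patient LL29 lung fibroblasts in 1% FBS medium received compound (11-point, 1:2 dilution, 0.1% DMSO) plus TGF-β1 20 ng/mL, 4 days at 37 °C. Percent αSMA-positive cells among SYTOX-negative cells quantified by immunofluorescence imaging, normalized to TGF-β1/DMSO wells. EC50 by non-linear regression on triplicates; above 10 μM, % inhibition at 10 μM given.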

The subject of test [2] is IL-6 (THP-1 human monocyte cell line). The test is described as follows: IL-6 inhibition in LPS-stimulated THP-1 cells (HTRF). It is filed as cell-based. The note with it: LPS 500 ng/mL; for EC50: 22 hours, IL6 HTRF; for inhibition at 10 µM: given for EC50 >10 μM, read-out: percent inhibition at 10 μM. The essentials: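 THP-1 cells, serum-reduced to 1% FBS for 24 h, preincubated 2 h at 37° C with compound (10-point, 1:3 series, 0.1% DMSO), then stimulated with 500 ng/mL LPS for 22 h. IL-6 quantified by HTRF 665/620 nm ratio, normalized to DMSO; EC50 by four-parameter fit, else percent inhibition at 10 μM.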

SMILES strings stand for the structures.

For the molecule `c1cncc(-c2cnc3[nH]nc(-c4cc5c(-c6cccnc6)ccnc5[nH]4)c3c2)c1` [Compound 88, 5-(Pyridin-3-yl)-3-(4-(pyridin-3-yl)-1H-pyrrolo[2,3-b]pyridin-2-yl)-1H-pyrazolo[3,4-b]pyridine], in test [1], the half-maximal effective concentration (EC50) was > 10 µM and the inhibition at 10 µM turned out to be 0%. Besides, in test [2], the EC50 is > 10 µM and the inhibition at 10 µM worked out at 22.6%.

Turning to `CCNCc1cncc(-c2cnc3[nH]nc(-c4cc5c(-c6cccnc6)ccnc5[nH]4)c3c2)c1` [Compound 90, N-((5-(3-(4-(Pyridin-3-yl)-1H-pyrrolo[2,3-b]pyridin-2-yl)-1H-pyrazolo[3,4-b]pyridin-5-yl)pyridin-3-yl)methyl)ethanamine], the EC50 was > 10 µM in test [1] and 5.36 µM in test [2]. Further, in test [1], the inhibition at 10 µM came to 5.1%.

With `CC(C)C(=O)Nc1cncc(-c2cnc3[nH]nc(-c4cc5c(-c6cccnc6)ccnc5[nH]4)c3c2)c1` [Compound 93, N-(5-(3-(4-(Pyridin-3-yl)-1H-pyrrolo[2,3-b]pyridin-2-yl)-1H-pyrazolo[3,4-b]pyridin-5-yl)pyridin-3-yl)isobutyramide], the EC50 in test [1] and in test [2] was > 10 µM each time. The inhibition at 10 µM was determined as 42.1% in test [1] and 26.2% in test [2].

Turning to `CC(C)Nc1cncc(-c2cnc3[nH]nc(-c4cc5c(-c6cccnc6)ccnc5[nH]4)c3c2)c1` [Compound 96, N-Isopropyl-5-(3-(4-(pyridin-3-yl)-1H-pyrrolo[2,3-b]pyridin-2-yl)-1H-pyrazolo[3,4-b]pyridin-5-yl)pyridin-3-amine], the concentration giving a half-maximal response (EC50) in test [1] was determined as 1.56 µM; in test [2], 0.094 µM.

With `CN(C)Cc1cncc(-c2cnc3[nH]nc(-c4cc5c(-c6cccnc6)ccnc5[nH]4)c3c2)c1` [Compound 97, N,N-Dimethyl-1-(5-(3-(4-(pyridin-3-yl)-1H-pyrrolo[2,3-b]pyridin-2-yl)-1H-pyrazolo[3,4-b]pyridin-5-yl)pyridin-3-yl)methanamine], in test [1], the EC50 is > 10 µM and the inhibition at 10 µM was 0%. Also, in test [2], the 50% effective concentration (EC50) is > 10 µM and the inhibition at 10 µM came out at 38.5%.

Regarding `c1cncc(-c2ccnc3[nH]c(-c4n[nH]c5ncc(-c6cncc(CN7CCCCC7)c6)cc45)cc23)c1` [Compound 99, 5-(5-(Piperidin-1-ylmethyl)pyridin-3-yl)-3-(4-(pyridin-3-yl)-1H-pyrrolo[2,3-b]pyridin-2-yl)-1H-pyrazolo[3,4-b]pyridine], in test [1], the half-maximal effective concentration (EC50) was > 10 µM and the inhibition at 10 µM came out at 73.8%. For the same molecule, in test [2], the concentration for a half-maximal effect (EC50) was > 10 µM and the inhibition at 10 µM is 37%.

Take `O=C(Nc1cncc(-c2cnc3[nH]nc(-c4cc5c(-c6cccnc6)ccnc5[nH]4)c3c2)c1)C1CC1` [Compound 104, N-(5-(3-(4-(Pyridin-3-yl)-1H-pyrrolo[2,3-b]pyridin-2-yl)-1H-pyrazolo[3,4-b]pyridin-5-yl)pyridin-3-yl)cyclopropanecarboxamide]: in test [1], the 50% effective concentration (EC50) was > 10 µM and the inhibition at 10 µM turned out to be 19.6%. In test [2], the EC50 was > 10 µM and the inhibition at 10 µM was found to be 35.8%.

The molecule `Nc1cncc(-c2cnc3[nH]nc(-c4cc5c(-c6ccncc6)ccnc5[nH]4)c3c2)c1` [Compound 115, 5-(3-(4-(Pyridin-4-yl)-1H-pyrrolo[2,3-b]pyridin-2-yl)-1H-pyrazolo[3,4-b]pyridin-5-yl)pyridin-3-amine] displayed a 50% effective concentration (EC50) in test [1] of 5.9 µM. Also, in test [2], the EC50 is > 10 µM and the inhibition at 10 µM stood at 40.6%.

Regarding `Cc1ccncc1-c1cnc2[nH]nc(-c3cc4c(-c5ccncc5)ccnc4[nH]3)c2c1` [Compound 117, 5-(4-Methylpyridin-3-yl)-3-(4-(pyridin-4-yl)-1H-pyrrolo[2,3-b]pyridin-2-yl)-1H-pyrazolo[3,4-b]pyridine], in test [1], the EC50 is > 10 µM and the inhibition at 10 µM was 52.9%. Also, in test [2], the half-maximal effective concentration (EC50) is > 10 µM and the inhibition at 10 µM amounted to 17.1%.

In the case of `O=C(Nc1cncc(-c2cnc3[nH]nc(-c4cc5c(-c6ccncc6)ccnc5[nH]4)c3c2)c1)c1ccccc1` [Compound 123, N-(5-(3-(4-(Pyridin-4-yl)-1H-pyrrolo[2,3-b]pyridin-2-yl)-1H-pyrazolo[3,4-b]pyridin-5-yl)pyridin-3-yl)benzamide], in test [1], the EC50 was > 10 µM and the inhibition at 10 µM came to 0%. In addition, in test [2], the EC50 is > 10 µM and the inhibition at 10 µM worked out at 15.1%.

Take `CC(C)(C)CC(=O)Nc1cncc(-c2cnc3[nH]nc(-c4cc5c(-c6ccncc6)ccnc5[nH]4)c3c2)c1` [Compound 128, 3,3-Dimethyl-N-(5-(3-(4-(pyridin-4-yl)-1H-pyrrolo[2,3-b]pyridin-2-yl)-1H-pyrazolo[3,4-b]pyridin-5-yl)pyridin-3-yl)butanamide]: in test [1], the concentration for a half-maximal effect (EC50) is > 10 µM and the inhibition at 10 µM stood at 0%. For the same molecule, in test [2], the concentration giving a half-maximal response (EC50) was > 10 µM and the inhibition at 10 µM was found to be 45.8%.

As for `CCCC(=O)Nc1cncc(-c2cnc3[nH]nc(-c4cc5c(-c6ccncc6)ccnc5[nH]4)c3c2)c1` [Compound 129, N-(5-(3-(4-(Pyridin-4-yl)-1H-pyrrolo[2,3-b]pyridin-2-yl)-1H-pyrazolo[3,4-b]pyridin-5-yl)pyridin-3-yl)butyramide], the half-maximal effective concentration (EC50) in test [1] and in test [2] was 0.621 µM in each case.

Turning to `c1cc(-c2cnc3[nH]nc(-c4cc5c(-c6ccncc6)ccnc5[nH]4)c3c2)ccn1` [Compound 130, 5-(Pyridin-4-yl)-3-(4-(pyridin-4-yl)-1H-pyrrolo[2,3-b]pyridin-2-yl)-1H-pyrazolo[3,4-b]pyridine], in test [1], the EC50 was > 10 µM and the inhibition at 10 µM turned out to be 20.5%. Besides, in test [2], the EC50 was > 10 µM and the inhibition at 10 µM amounted to 45.9%.

For the molecule `O=C(Nc1cncc(-c2cnc3[nH]nc(-c4cc5c(-c6ccncc6)ccnc5[nH]4)c3c2)c1)C1CCCCC1` [Compound 135, N-(5-(3-(4-(Pyridin-4-yl)-1H-pyrrolo[2,3-b]pyridin-2-yl)-1H-pyrazolo[3,4-b]pyridin-5-yl)pyridin-3-yl)cyclohexanecarboxamide], the EC50 in test [1] and in test [2] was > 10 µM each time. Moreover, the figures for the inhibition at 10 µM in test [1] and in test [2] were 19.8% and 37.7%, respectively.

As to `c1ccc(CNCc2cncc(-c3cnc4[nH]nc(-c5cc6c(-c7ccncc7)ccnc6[nH]5)c4c3)c2)cc1` [Compound 136, N-Benzyl-1-(5-(3-(4-(pyridin-4-yl)-1H-pyrrolo[2,3-b]pyridin-2-yl)-1H-pyrazolo[3,4-b]pyridin-5-yl)pyridin-3-yl)methanamine], the EC50 in test [1] came to 3.04 µM. Moreover, in test [2], the concentration giving a half-maximal response (EC50) was > 10 µM and the inhibition at 10 µM was 23.5%.

Regarding `c1ccc(-c2cnc3[nH]nc(-c4cc5c(-c6ccncc6)ccnc5[nH]4)c3c2)nc1` [Compound 140, 5-(Pyridin-2-yl)-3-(4-(pyridin-4-yl)-1H-pyrrolo[2,3-b]pyridin-2-yl)-1H-pyrazolo[3,4-b]pyridine], in test [1], the EC50 was > 10 µM and the inhibition at 10 µM was found to be 24.5%. In addition, in test [2], the EC50 was > 10 µM and the inhibition at 10 µM was found to be 24.5%.

In the case of `CCC(=O)Nc1cncc(-c2cnc3[nH]nc(-c4cc5c(N6CCCCC6)ccnc5[nH]4)c3c2)c1` [Compound 169, N-(5-(3-(4-(Piperidin-1-yl)-1H-pyrrolo[2,3-b]pyridin-2-yl)-1H-pyrazolo[3,4-b]pyridin-5-yl)pyridin-3-yl)propionamide], the EC50 in test [1] was 2.98 µM; in test [2], 4.81 µM.

As for `CC(C)(C)C(=O)Nc1cncc(-c2cnc3[nH]nc(-c4cc5c(N6CCCCC6)ccnc5[nH]4)c3c2)c1` [Compound 176, N-(5-(3-(4-(Piperidin-1-yl)-1H-pyrrolo[2,3-b]pyridin-2-yl)-1H-pyrazolo[3,4-b]pyridin-5-yl)pyridin-3-yl)pivalamide], the EC50 in test [1] was > 10 µM; in test [2], 1.2 µM. In test [1], the inhibition at 10 µM worked out at 22.4%.

On to `CN(C)Cc1cncc(-c2cnc3[nH]nc(-c4cc5c(N6CCCCC6)ccnc5[nH]4)c3c2)c1` [Compound 181, N,N-Dimethyl-1-(5-(3-(4-(piperidin-1-yl)-1H-pyrrolo[2,3-b]pyridin-2-yl)-1H-pyrazolo[3,4-b]pyridin-5-yl)pyridin-3-yl)methanamine], for which the 50% effective concentration (EC50) in test [1] and in test [2] was 0.007 µM each time.

In the case of `c1cc(N2CCCCC2)c2cc(-c3n[nH]c4ncc(-c5cncc(CN6CCCC6)c5)cc34)[nH]c2n1` [Compound 182, 3-(4-(Piperidin-1-yl)-1H-pyrrolo[2,3-b]pyridin-2-yl)-5-(5-(pyrrolidin-1-ylmethyl)pyridin-3-yl)-1H-pyrazolo[3,4-b]pyridine], the figures for the 50% effective concentration (EC50) in test [1] and in test [2] were > 10 µM and 0.463 µM, respectively. In addition, in test [1], the inhibition at 10 µM was 21.9%.

Regarding `CCCC(=O)Nc1cncc(-c2cnc3[nH]nc(-c4cc5c(N6CCCCC6)ccnc5[nH]4)c3c2)c1` [Compound 185, N-(5-(3-(4-(Piperidin-1-yl)-1H-pyrrolo[2,3-b]pyridin-2-yl)-1H-pyrazolo[3,4-b]pyridin-5-yl)pyridin-3-yl)butyramide], in test [1], the EC50 was > 10 µM and the inhibition at 10 µM was 0%. Also, in test [2], the concentration giving a half-maximal response (EC50) is > 10 µM and the inhibition at 10 µM was found to be 41.2%.

On to `c1ncc(-c2cnc3[nH]nc(-c4cc5c(N6CCCCC6)ccnc5[nH]4)c3c2)cn1` [Compound 195, 3-(4-(Piperidin-1-yl)-1H-pyrrolo[2,3-b]pyridin-2-yl)-5-(pyrimidin-5-yl)-1H-pyrazolo[3,4-b]pyridine], for which, in test [1], the midpoint of the response, the EC50, lay at 4.38 µM. Besides, in test [2], the EC50 is > 10 µM and the inhibition at 10 µM was 49.8%.

Source of the values: US10285983B2, “3-(1H-pyrrolo[2,3-B]pyridin-2-yl)-1H-pyrazolo[3,4-B] pyridines and therapeutic uses thereof” (Samumed, LLC, priority 2015, dated 2019).
